The test system of the assay is Human immunodeficiency virus 1. Briefly: Antiviral activity against HIV-1 pseudovirus infected in HEK293T cells transfected with DC-SIGN assessed as inhibition of viral entry into cells at 500 uM preincubated with compound for 2 hrs followed by viral addition and measured after 4 hrs by p24 ELISA relative to control. Conditions: Human immunodeficiency virus 1, HEK-293T, time 6 hrs. The assay is classed as functional.

With `[N-]=[N+]=NCCO[C@H]1O[C@H](CO[C@H]2O[C@H](CO)[C@@H](O)[C@H](O)[C@@H]2O[C@H]2O[C@H](CO)[C@@H](O)[C@H](O)[C@@H]2O)[C@@H](O)[C@H](O[C@H]2O[C@H](CO)[C@@H](O)[C@H](O)[C@@H]2O[C@H]2O[C@H](CO)[C@@H](O)[C@H](O)[C@@H]2O)[C@@H]1O`, the inhibition at 500 µM was found to be 15%.

For the origin of these results see ChEMBL document CHEMBL5518201, “Glycan-Modified Peptides for Dual Inhibition of Human Immunodeficiency Virus Entry into Dendritic Cells and T Cells” (J Med Chem, 2024).
